Laboratory results reported in US6573275B1, “Bicyclic amines” (Syngenta Limited, priority 1995, dated 2003).

System: peach aphid (Myzus persicae)
Assay: Insecticidal test against peach aphid, infested Chinese cabbage leaves sprayed
Assay type: in vivo
Conditions: peach aphid (Myzus persicae) on Chinese cabbage leaves, sprayed with 500 ppm composition unless otherwise stated, mortality assessed after 3 days
Summary of the method: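 Aphid-infested Chinese cabbage leaves were sprayed with compound at 500 ppm unless otherwise stated, formulated in acetone/ethanol diluted with water containing 0.05% Synperonic NP8. Mortality was assessed after 3 days.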

Compound | Score (grading of mortality)
N#C[C@@]1(c2cncc(Cl)c2)C[C@H]2CC[C@@H](C1)N2Cc1ccccc1 [Compound 237, exo-3-(5-chloropyrid-3-yl)-endo-3-cyano-8-benzyl-8-azabicyclo[3.2.1]octane] | A (A indicates 80-100% mortality)
N#CC1(c2cncc(Cl)c2)CC2CCC(C1)N2Cc1ccccc1Br (stereo not drawn) [Compound 238] | A (A indicates 80-100% mortality)
Cc1ccccc1CN1C2CCC1CC(C#N)(c1cncc(Cl)c1)C2 (stereo not drawn) [Compound 239] | A (A indicates 80-100% mortality)
N#CC1(c2cncc(Cl)c2)CC2CCC(C1)N2Cc1cccc(Br)c1 (stereo not drawn) [Compound 240] | A (A indicates 80-100% mortality)
COC(=O)c1cccc(CN2C3CCC2CC(C#N)(c2cncc(Cl)c2)C3)c1 (stereo not drawn) [Compound 241] | A (A indicates 80-100% mortality)
Cc1cccc(CN2C3CCC2CC(C#N)(c2cncc(Cl)c2)C3)c1 (stereo not drawn) [Compound 242] | A (A indicates 80-100% mortality)
N#CC1(c2cncc(Cl)c2)CC2CCC(C1)N2Cc1ccc(Br)cc1 (stereo not drawn) [Compound 243] | A (A indicates 80-100% mortality)
CC(C)(C)C(=O)c1ccc(CN2C3CCC2CC(C#N)(c2cncc(Cl)c2)C3)cc1 (stereo not drawn) [Compound 245] | A (A indicates 80-100% mortality)
CC(C)(C)c1ccc(CN2C3CCC2CC(C#N)(c2cncc(Cl)c2)C3)cc1 (stereo not drawn) [Compound 246] | A (A indicates 80-100% mortality)
CC(C)c1ccc(CN2C3CCC2CC(C#N)(c2cncc(Cl)c2)C3)cc1 (stereo not drawn) [Compound 247] | A (A indicates 80-100% mortality)
Cc1ccc(CN2C3CCC2CC(C#N)(c2cncc(Cl)c2)C3)cc1 (stereo not drawn) [Compound 248] | A (A indicates 80-100% mortality)
N#CC1(c2cncc(Cl)c2)CC2CCC(C1)N2Cc1ccc(F)c(F)c1 (stereo not drawn) [Compound 249] | A (A indicates 80-100% mortality)
N#CC1(c2cncc(Cl)c2)CC2CCC(C1)N2Cc1ccccc1F (stereo not drawn) [Compound 250] | A (A indicates 80-100% mortality)
N#CC1(c2cncc(Cl)c2)CC2CCC(C1)N2Cc1cc(F)cc(Br)c1 (stereo not drawn) [Compound 251] | A (A indicates 80-100% mortality)
N#CC1(c2cncc(Cl)c2)CC2CCC(C1)N2Cc1ccc(F)cc1F (stereo not drawn) [Compound 252] | A (A indicates 80-100% mortality)
N#CC1(c2cncc(Cl)c2)CC2CCC(C1)N2Cc1cccc(F)c1 (stereo not drawn) [Compound 253] | A (A indicates 80-100% mortality)
N#CC1(c2cncc(Cl)c2)CC2CCC(C1)N2Cc1ccc(F)cc1 (stereo not drawn) [Compound 254] | A (A indicates 80-100% mortality)
N#CC1(c2cncc(Cl)c2)CC2CCC(C1)N2Cc1cccc(C(F)(F)F)c1 (stereo not drawn) [Compound 255] | A (A indicates 80-100% mortality)
N#CC1(c2cncc(Cl)c2)CC2CCC(C1)N2Cc1ccc(C(F)(F)F)cc1 (stereo not drawn) [Compound 256] | A (A indicates 80-100% mortality)
N#CC1(c2cncc(Cl)c2)CC2CCC(C1)N2Cc1cccc(Cl)c1F (stereo not drawn) [Compound 257] | A (A indicates 80-100% mortality)
N#CC1(c2cncc(Cl)c2)CC2CCC(C1)N2Cc1c(F)ccc(F)c1Cl (stereo not drawn) [Compound 258] | A (A indicates 80-100% mortality)

Compound | Score (grading of mortality)
N#CC1(c2cncc(Cl)c2)CC2CCC(C1)N2Cc1ccccc1Cl (stereo not drawn) [Compound 259] | A (A indicates 80-100% mortality)
N#CC1(c2cncc(Cl)c2)CC2CCC(C1)N2Cc1c(Cl)cccc1Cl (stereo not drawn) [Compound 260] | A (A indicates 80-100% mortality)
N#CC1(c2cncc(Cl)c2)CC2CCC(C1)N2Cc1cccc(Cl)c1 (stereo not drawn) [Compound 261] | A (A indicates 80-100% mortality)
N#CC1(c2cncc(Cl)c2)CC2CCC(C1)N2Cc1ccc(F)cc1I (stereo not drawn) [Compound 262] | A (A indicates 80-100% mortality)
Cc1cccc(CN2C3CCC2CC(C#N)(c2cncc(Cl)c2)C3)c1F (stereo not drawn) [Compound 263] | A (A indicates 80-100% mortality)
N#CC1(c2cncc(Cl)c2)CC2CCC(C1)N2Cc1ccccc1N1C(=O)CCC1=O (stereo not drawn) [Compound 264] | A (A indicates 80-100% mortality)
N#CC1(c2cncc(Cl)c2)CC2CCC(C1)N2Cc1cc(C(F)(F)F)ccc1F (stereo not drawn) [Compound 265] | A (A indicates 80-100% mortality)
N#CC1(c2cncc(Cl)c2)CC2CCC(C1)N2Cc1ccccc1-c1ccccc1 (stereo not drawn) [Compound 266] | A (A indicates 80-100% mortality)
N#Cc1ccccc1CN1C2CCC1CC(C#N)(c1cncc(Cl)c1)C2 (stereo not drawn) [Compound 267] | A (A indicates 80-100% mortality)
N#CC1(c2cncc(Cl)c2)CC2CCC(C1)N2Cc1cccc(Oc2ccc(F)cc2)c1 (stereo not drawn) [Compound 269] | A (A indicates 80-100% mortality)
N#Cc1ccc(CN2C3CCC2CC(C#N)(c2cncc(Cl)c2)C3)cc1 (stereo not drawn) [Compound 270] | A (A indicates 80-100% mortality)
N#CC1(c2cncc(Cl)c2)CC2CCC(C1)N2Cc1ccc(F)c(F)c1F (stereo not drawn) [Compound 271] | A (A indicates 80-100% mortality)
N#CC1(c2cncc(Cl)c2)CC2CCC(C1)N2Cc1ccccc1[N+](=O)[O-] (stereo not drawn) [Compound 272] | A (A indicates 80-100% mortality)
N#CC1(c2cncc(Cl)c2)CC2CCC(C1)N2Cc1c(F)cccc1[N+](=O)[O-] (stereo not drawn) [Compound 273] | A (A indicates 80-100% mortality)
N#CC1(c2cncc(Cl)c2)CC2CCC(C1)N2Cc1cccc([N+](=O)[O-])c1 (stereo not drawn) [Compound 274] | A (A indicates 80-100% mortality)
N#CC1(c2cncc(Cl)c2)CC2CCC(C1)N2Cc1ccc([N+](=O)[O-])cc1 (stereo not drawn) [Compound 275] | A (A indicates 80-100% mortality)
CC(C)CN1C2CCC1CC(C#N)(c1cncc(Cl)c1)C2 (stereo not drawn) [Compound 276] | A (A indicates 80-100% mortality)
CCCCCCCCCCN1C2CCC1CC(C#N)(c1cncc(Cl)c1)C2 (stereo not drawn) [Compound 277] | A (A indicates 80-100% mortality)
N#CC1(c2cncc(Cl)c2)CC2CCC(C1)N2CCOc1ccccc1 (stereo not drawn) [Compound 278] | A (A indicates 80-100% mortality)
CCOCCN1C2CCC1CC(C#N)(c1cncc(Cl)c1)C2 (stereo not drawn) [Compound 279] | A (A indicates 80-100% mortality)
CC(C)CCN1C2CCC1CC(C#N)(c1cncc(Cl)c1)C2 (stereo not drawn) [Compound 280] | A (A indicates 80-100% mortality)

Compound | Score (grading of mortality)
COC(=O)CCCN1C2CCC1CC(C#N)(c1cncc(Cl)c1)C2 (stereo not drawn) [Compound 281] | A (A indicates 80-100% mortality)
N#CC1(c2cncc(Cl)c2)CC2CCC(C1)N2CCCc1ccccc1 (stereo not drawn) [Compound 282] | A (A indicates 80-100% mortality)
N#CC1(c2cncc(Cl)c2)CC2CCC(C1)N2CC1CCCCC1 (stereo not drawn) [Compound 283] | A (A indicates 80-100% mortality)
N#CCCN1C2CCC1CC(C#N)(c1cncc(Cl)c1)C2 (stereo not drawn) [Compound 284, exo-3-(5-chloropyrid-3-yl)-endo-3-cyano-8-(2-cyanoethyl)-8-azabicyclo[3.2.1]octane] | A (A indicates 80-100% mortality)
N#CCCCN1C2CCC1CC(C#N)(c1cncc(Cl)c1)C2 (stereo not drawn) [Compound 285] | A (A indicates 80-100% mortality)
CC(O)CN1C2CCC1CC(C#N)(c1cncc(Cl)c1)C2 (stereo not drawn) [Compound 286] | A (A indicates 80-100% mortality)
C=CC(=O)OCCN1C2CCC1CC(C#N)(c1cncc(Cl)c1)C2 (stereo not drawn) [Compound 287] | A (A indicates 80-100% mortality)
COCCN1C2CCC1CC(C#N)(c1cncc(Cl)c1)C2 (stereo not drawn) [Compound 288] | A (A indicates 80-100% mortality)
N#CC1(c2cncc(Cl)c2)CC2CCC(C1)N2CC1CCCCO1 (stereo not drawn) [Compound 289] | A (A indicates 80-100% mortality)
CC(CO)CN1C2CCC1CC(C#N)(c1cncc(Cl)c1)C2 (stereo not drawn) [Compound 290] | A (A indicates 80-100% mortality)
N#CC1(c2cncc(Cl)c2)CC2CCC(C1)N2CP(=O)(O)O (stereo not drawn) [Compound 292, exo-3-(5-chloropyrid-3-yl)-endo-3-cyano-8-phosphonomethyl-8-azabicyclo[3.2.1]octane] | A (A indicates 80-100% mortality)
C[N+]1([O-])C2CCC1CC(C#N)(c1cncc(Cl)c1)C2 (stereo not drawn) [Compound 293] | A (A indicates 80-100% mortality)
CC(C)(C)OC(=O)N1C2CCC1CC(C#N)(c1cncc(Cl)c1)C2 (stereo not drawn) [Compound 294] | A (A indicates 80-100% mortality)
CON1C2CCC1CC(C#N)(c1cncc(Cl)c1)C2 (stereo not drawn) [Compound 296, exo-3-(5-chloropyrid-3-yl)-endo-3-cyano-8-methoxy-8-azabicyclo[3.2.1]octane] | A (A indicates 80-100% mortality)
N#CC1(c2ccnc(Cl)n2)CC2CCC(C1)N2CC(F)(F)F (stereo not drawn) [Compound 297] | A (A indicates 80-100% mortality)
C=COC(=O)N1C2CCC1CC(C#N)(c1cncc(Cl)n1)C2 (stereo not drawn) [Compound 298] | A (A indicates 80-100% mortality)
N#CC1(c2cncc(Cl)n2)CC2CCC(C1)N2 (stereo not drawn) [Compound 299] | A (A indicates 80-100% mortality)
N#CC1(c2cncc(Cl)n2)CC2CCC(C1)N2Cc1cccc(Cl)c1 (stereo not drawn) [Compound 300] | A (A indicates 80-100% mortality)
N#CCN1C2CCC1CC(C#N)(c1cncc(Cl)n1)C2 (stereo not drawn) [Compound 301] | A (A indicates 80-100% mortality)
CC(c1cccc(Cl)c1)N1C2CCC1CC(C#N)(c1cncc(Cl)c1)C2 (stereo not drawn) [Compound 302] | A (A indicates 80-100% mortality)
CN1C2CCC1CC(C#N)(c1cncc(C#N)c1)C2 (stereo not drawn) [Compound 304] | A (A indicates 80-100% mortality)
